Results reported in patent US7335373B2, “Biocidal siloxane coating material containing N-halogenated amine and amide functional groups” (Auburn University, priority 2003, dated 2008).

What was measured:
[1] = Oxidative chlorine loading by iodometric/thiosulfate titration; details: cotton fabric treated directly with 2% by weight TTDD, chlorinated in 10 vol % bleach at pH 8 for 30 minutes
[2] = after 5 washing cycles

Cl^+ loading [1]: 0.57%
titratable chlorine after washing ([2]; TTDD-treated chlorinated cotton fabric): no titratable chlorine
rechlorination after washing ([2]; TTDD-treated cotton fabric): could not be rechlorinated
SMILES: CC1(C)CC2(CC(C)(C)N1)NC(=O)NC2=O [TTDD]
